This note sets out measurements from patent US8859569B2, “Substituted annellated pyrimidines and use thereof” (Bayer Pharma Aktiengesellschaft, priority 2011, dated 2014).

The target in experiment [1] is T1, human phosphodiesterase 5 (PDE-5) (Homo sapiens, UniProt O76074).
T1 construct: PDE-5 preparations are obtained from human platelets by lysis; from tissue; host or cells: human platelets
Kind of experiment: Inhibition of human phosphodiesterase 5 (PDE-5), SPA assay. Format: biochemical. Particulars: PDE-5 preparation from human platelets, [8-3H]cGMP substrate. Here is the method: B-6. Inhibition of Human Phosphodiesterase 5 (PDE-5)
PDE-5 preparations are obtained from human platelets by lysis (Microfluidizer®, 800 bar, 3 passages), followed by centrifugation (75000 g, 60 min, 4° C.) and ion-exchange chromatography of the supernatant on a Mono Q 10/10 column (linear sodium chloride gradient, elution with a 0.2-0.3M solution of sodium chloride in buffer (20 mM Hepes pH 7.2, 2 mM magnesium chloride). Fractions that have PDE-5 activity are combined (PDE-5 preparation) and stored at −80° C.
For determining their in-vitro action on human PDE-5, the test substances are dissolved in 100% DMSO and serial dilutions are prepared. Typically, dilution series (1:3) from 200 μM to 0.091 μM are prepared (resultant final concentrations in the test: 4 μM to 0.0018 μM). In each case 2 μL of the diluted solutions of the substance are put in the wells of microtitre plates (Isoplate-96/200W; Perkin-Elmer). Then 50 μL of a dilution of the PDE-5 preparation described above is added. The dilution of the PDE-5 preparation is selected so that during subsequent incubation less than 70% of the substrate is reacted (typical dilution: 1:100; dilution buffer: 50 mM Tris/hydrochloric acid pH 7.5, 8.3 mM magnesium chloride, 1.7 mM EDTA, 0.2% BSA). The substrate [8-^3H]cyclic guanosine-3′,5′-monophosphate (1 μCi/μL; Perkin-Elmer) is diluted 1:2000 with assay buffer (50 mM Tris/hydrochloric acid pH 7.5, 8.3 mM magnesium chloride, 1.7 mM EDTA) to a concentration of 0.0005 μCi/μL. The enzyme reaction is finally started by adding 50 μL (0.025 μCi) of the diluted substrate. The test preparations are incubated for 60 min at room temperature and the reaction is stopped by adding 25 μL of a suspension of 18 mg/mL of Yttrium Scintillation Proximity Beads in water (phosphodiesterase beads for SPA assays, RPNQ 0150, Perkin-Elmer). The microtitre plates are sealed with film and left to stand for 60 min at room temperature. Then the plates are measured for 30 s per well in a Microbeta scintillation counter (Perkin-Elmer). IC50 values are determined on the basis of the graphs plotted of the substance concentration versus the percentage PDE-5 inhibition.

The target of experiment [2] is T2, recombinant guanylate cyclase reporter cell line (Rattus norvegicus, UniProt P19686+P20595).
T2 construct: expressed in transfected cells
T2 sequence (P20595 1-619): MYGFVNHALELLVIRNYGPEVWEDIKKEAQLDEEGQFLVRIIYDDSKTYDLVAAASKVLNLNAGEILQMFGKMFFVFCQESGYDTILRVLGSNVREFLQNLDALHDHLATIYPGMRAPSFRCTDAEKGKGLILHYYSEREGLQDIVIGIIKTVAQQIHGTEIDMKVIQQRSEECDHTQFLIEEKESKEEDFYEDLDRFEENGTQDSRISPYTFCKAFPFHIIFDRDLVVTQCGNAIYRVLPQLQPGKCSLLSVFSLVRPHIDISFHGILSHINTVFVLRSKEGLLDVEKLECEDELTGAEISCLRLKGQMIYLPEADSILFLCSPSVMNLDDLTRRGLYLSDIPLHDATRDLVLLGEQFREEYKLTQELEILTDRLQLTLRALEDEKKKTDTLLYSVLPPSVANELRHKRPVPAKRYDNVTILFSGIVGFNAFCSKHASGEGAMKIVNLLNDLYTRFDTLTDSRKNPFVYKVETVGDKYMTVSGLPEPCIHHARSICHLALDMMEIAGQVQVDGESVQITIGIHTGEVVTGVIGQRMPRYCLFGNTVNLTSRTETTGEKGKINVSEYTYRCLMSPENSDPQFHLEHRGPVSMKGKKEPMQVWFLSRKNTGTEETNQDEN
T2 sequence (P19686 1-690): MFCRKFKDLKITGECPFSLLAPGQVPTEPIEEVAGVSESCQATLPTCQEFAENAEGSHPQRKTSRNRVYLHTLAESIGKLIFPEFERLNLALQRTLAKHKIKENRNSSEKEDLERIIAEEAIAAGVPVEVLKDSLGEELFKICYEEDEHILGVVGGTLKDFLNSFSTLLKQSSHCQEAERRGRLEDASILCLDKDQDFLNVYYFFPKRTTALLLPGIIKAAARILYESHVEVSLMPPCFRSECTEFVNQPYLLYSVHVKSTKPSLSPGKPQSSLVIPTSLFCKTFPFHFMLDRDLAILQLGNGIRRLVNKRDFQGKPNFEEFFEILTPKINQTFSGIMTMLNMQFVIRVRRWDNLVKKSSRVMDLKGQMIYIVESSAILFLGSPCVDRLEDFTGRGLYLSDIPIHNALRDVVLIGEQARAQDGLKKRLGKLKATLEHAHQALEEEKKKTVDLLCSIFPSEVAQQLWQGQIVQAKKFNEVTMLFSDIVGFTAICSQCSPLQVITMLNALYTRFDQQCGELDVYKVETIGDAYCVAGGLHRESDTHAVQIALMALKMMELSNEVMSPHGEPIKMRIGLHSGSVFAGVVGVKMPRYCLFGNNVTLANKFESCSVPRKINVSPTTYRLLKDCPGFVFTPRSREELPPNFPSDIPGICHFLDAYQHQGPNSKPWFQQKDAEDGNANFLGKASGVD
Kind of experiment: Action on recombinant guanylate cyclase reporter cell line. In kind it is cell-based. Here is the method:
B-2. Action on Recombinant Guanylate Cyclase Reporter Cell Line
The cellular action of the compounds according to the invention is determined on a recombinant guanylate cyclase reporter cell line, as described in F. Wunder et al., Anal. Biochem. 339, 104-112 (2005).

For orientation: IC50 means the concentration needed to halve the response being measured. High values mean a need for much substance, low ones inhibition by little substance. `Cn1cc(CNc2nc(-c3nn(Cc4ccccc4F)c4ncccc34)nc3c2C(C)(C)C(=O)N3)cn1` [Example 59, 2-[1-(2-fluorobenzyl)-1H-pyrazolo[3,4-b]pyridin-3-yl]-5,5-dimethyl-4-{[(1-methyl-1H-pyrazol-4-yl)methyl]amino}-5,7-dihydro-6H-pyrrolo[2,3-d]pyrimidin-6-one] displayed an IC50 in experiment [1] of 8 nM. Besides, the “MEC (minimal effective concentration)” value in experiment [2] turned out to be 0.1 μm.

`CC(C)CCNc1nc(-c2nn(Cc3ccccc3F)c3ncccc23)nc2c1C(C)(C)C(=O)N2` [Example 63, 2-[1-(2-fluorobenzyl)-1H-pyrazolo[3,4-b]pyridin-3-yl]-5,5-dimethyl-4-[(3-methylbutyl)amino]-5,7-dihydro-6H-pyrrolo[2,3-d]pyrimidin-6-one] gave an IC50 in experiment [1] of 230 nM. Moreover, in experiment [2], the “MEC (minimal effective concentration)” value is on record as 0.03 μm.

Consider `CC(=O)NCCNc1nc(-c2nn(Cc3ccccc3F)c3ncccc23)nc2c1C(C)(C)C(=O)N2` [Example 44, N-[2-({2-[1-(2-fluorobenzyl)-1H-pyrazolo[3,4-b]pyridin-3-yl]-5,5-dimethyl-6-oxo-6,7-dihydro-5H-pyrrolo[2,3-d]pyrimidin-4-yl}amino)ethyl]acetamide], for which, in experiment [1], the IC50 came to 86 nM. In addition, in experiment [2], the “MEC (minimal effective concentration)” value stood at 0.1 μm.

In turn, `COCCNc1nc(-c2nn(Cc3ccccc3F)c3ncccc23)nc2c1C(C)(C)C(=O)N2` [Example 56, 2-[1-(2-fluorobenzyl)-1H-pyrazolo[3,4-b]pyridin-3-yl]-4-[(2-methoxyethyl)amino]-5,5-dimethyl-5,7-dihydro-6H-pyrrolo[2,3-d]pyrimidin-6-one] returned an IC50 in experiment [1] of 34 nM. Further, in experiment [2], the “MEC (minimal effective concentration)” value is listed as 0.03 μm. In turn, `CCOC(=O)C1(C)C(=O)Nc2nc(-c3nn(Cc4ccccc4F)c4ncccc34)nc(O)c21` (stereo not shown) [Example 101, Ethyl-2-[1-(2-fluorobenzyl)-1H-pyrazolo[3,4-b]pyridin-3-yl]-4-hydroxy-5-methyl-6-oxo-6,7-dihydro-5H-pyrrolo[2,3-d]pyrimidine-5-carboxylate] displayed an IC50 in experiment [1] of 870 nM.

`CC1(C)C(=O)Nc2nc(-c3nn(Cc4ccccc4F)c4ncccc34)nc(NCc3cccnc3)c21` [Example 84, 2-[1-(2-fluorobenzyl)-1H-pyrazolo[3,4-b]pyridin-3-yl]-5,5-dimethyl-4-[(pyridin-3-ylmethyl)amino]-5,7-dihydro-6H-pyrrolo[2,3-d]pyrimidin-6-one] came in with a half-inhibitory concentration (IC50) in experiment [1] of 19 nM. The “MEC (minimal effective concentration)” value in experiment [2] was found to be 0.1 μm. The corresponding values for `COCCN(C)c1nc(-c2nn(Cc3ccccc3F)c3ncccc23)nc2c1C(C)(C)C(=O)N2` [Example 75, 2-[1-(2-fluorobenzyl)-1H-pyrazolo[3,4-b]pyridin-3-yl]-4-[(2-methoxyethyl)(methyl)amino]-5,5-dimethyl-5,7-dihydro-6H-pyrrolo[2,3-d]pyrimidin-6-one] are 210 nM and 0.03 μm.

The compound `Cn1ccnc1CNc1nc(-c2nn(Cc3ccccc3F)c3ncccc23)nc2c1C(C)(C)C(=O)N2` [Example 60, 2-[1-(2-fluorobenzyl)-1H-pyrazolo[3,4-b]pyridin-3-yl]-5,5-dimethyl-4-{[(1-methyl-1H-imidazol-2-yl)methyl]amino}-5,7-dihydro-6H-pyrrolo[2,3-d]pyrimidin-6-one] came in with an IC50 in experiment [1] of 430 nM. Moreover, the “MEC (minimal effective concentration)” value in experiment [2] is given as 0.3 μm. The corresponding values for `COC1CN(c2nc(-c3nn(Cc4ccccc4F)c4ncccc34)nc3c2C(C)(C)C(=O)N3)C1` [Example 53, 2-[1-(2-fluorobenzyl)-1H-pyrazolo[3,4-b]pyridin-3-yl]-4-(3-methoxyazetidin-1-yl)-5,5-dimethyl-5,7-dihydro-6H-pyrrolo[2,3-d]pyrimidin-6-one] are 150 nM and 3.0 μm.

`CC1(C)C(=O)Nc2nc(-c3nn(Cc4ccccc4F)c4ncccc34)nc(NCc3ccccc3)c21` [Example 83, 4-(benzylamino)-2-[1-(2-fluorobenzyl)-1H-pyrazolo[3,4-b]pyridin-3-yl]-5,5-dimethyl-5,7-dihydro-6H-pyrrolo[2,3-d]pyrimidin-6-one] registered an IC50 in experiment [1] of 230 nM. Moreover, the “MEC (minimal effective concentration)” value in experiment [2] was 0.03 μm.

In experiment [1], `CC1(C)C(=O)Nc2nc(-c3nn(Cc4ccccc4F)c4ncccc34)nc(N3CCC(F)(F)C3)c21` [Example 76, 4-(3,3-difluoropyrrolidin-1-yl)-2-[1-(2-fluorobenzyl)-1H-pyrazolo[3,4-b]pyridin-3-yl]-5,5-dimethyl-5,7-dihydro-6H-pyrrolo[2,3-d]pyrimidin-6-one] gave an IC50 of 130 nM. Also, in experiment [2], the “MEC (minimal effective concentration)” value was determined as 0.03 μm.

Regarding `CC1(C)C(=O)Nc2nc(-c3nn(Cc4ccccc4F)c4ncccc34)nc(NCc3ccccc3F)c21` [Example 42, 4-[(2-fluorobenzyl)amino]-2-[1-(2-fluorobenzyl)-1H-pyrazolo[3,4-b]pyridin-3-yl]-5,5-dimethyl-5,7-dihydro-6H-pyrrolo[2,3-d]pyrimidin-6-one], the midpoint of inhibition in experiment [1], the IC50, lay at 120 nM. Further, the “MEC (minimal effective concentration)” value in experiment [2] was found to be 0.1 μm.

Compound `CC1(C)C(=O)Nc2nc(-c3nn(Cc4ccccc4F)c4ncccc34)nc(N3C[C@@H]4C[C@H]3CO4)c21` [Example 46, 2-[1-(2-fluorobenzyl)-1H-pyrazolo[3,4-b]pyridin-3-yl]-5,5-dimethyl-4-[(1S,4S)-2-oxa-5-azabicyclo[2.2.1]hept-5-yl]-5,7-dihydro-6H-pyrrolo[2,3-d]pyrimidin-6-one] registered an IC50 in experiment [1] of 35 nM. Also, the “MEC (minimal effective concentration)” value in experiment [2] is 0.1 μm.

`CC1(C)C(=O)Nc2nc(-c3nn(Cc4ccccc4F)c4ncccc34)nc(NC[C@@H]3CCOC3)c21` [Example 45, 2-[1-(2-fluorobenzyl)-1H-pyrazolo[3,4-b]pyridin-3-yl]-5,5-dimethyl-4-[(tetrahydrofuran-3-ylmethyl)amino]-5,7-dihydro-6H-pyrrolo[2,3-d]pyrimidin-6-one]: the concentration for half-maximal inhibition (IC50) in experiment [1] came to 78 nM. The “MEC (minimal effective concentration)” value in experiment [2] is 0.1 μm. `C[C@@H](O)CNc1nc(-c2nn(Cc3ccccc3F)c3ncccc23)nc2c1C(C)(C)C(=O)N2` [Example 57, 2-[1-(2-fluorobenzyl)-1H-pyrazolo[3,4-b]pyridin-3-yl]-4-[(2-hydroxypropyl)amino]-5,5-dimethyl-5,7-dihydro-6H-pyrrolo[2,3-d]pyrimidin-6-one]: the IC50 in experiment [1] is 16 nM.
